The assay has as its target T1, human GCGR (Homo sapiens, UniProt P47871).
T1 construct: expressed in transfected cells; growth medium holds Blasticidin and Hygromycin
Description: cAMP activity assay at the Glucagon receptor (GCGR). It is filed as cell-based. As to conditions: for hGCGR/hGLP1R (hTone): ratio of GCGR EC50 to GLP1R EC50. How it is done: Activity of the peptides at the Glucagon receptor (GCGR) and GLP-1 receptor (GLP1R) was measured in a cAMP activity assay.
GCG/GLP-1 receptor co-agonist peptides were dissolved in 100% DMSO (dimethyl sulfoxide) and serially diluted to generate 10 point titrations. The peptide solutions were then transferred into 384-well assay plates (150 nL/well). Assay ready frozen cells expressing human GLP1R or human GCGR were suspended in growth media consisting of DMEM medium (GIBCO®), 10% FBS (GIBCO®), 1×NEAA(GIBCO®), 1×P/S (GIBCO®), 10 ug/mL Blasticidin (GIBCO®) and 200 μg/mL Hygromycin (GIBCO®). […] The cell suspensions (15 μL) were then added to the assay plates containing the peptide solutions (30,000 cells/well for human GCGR; 10,000 cells/well for human GLP1R). The cells were incubated for 1 hour at room temperature in the dark. Production of cAMP was determined using HitHunter™ cAMPXS kits (DiscoverX) following manufacturer protocol. The plates were incubated for overnight at room temperature in the dark. Luminescence was measured using an EnVision Multilabel plate reader (Perkin Elmer). Native GLP-1 and Glucagon (Bachem) are used as control peptides. EC50 values were calculated using uses a 4 parameter logistic fit based on the Levenberg-Marquardt algorithm.

Numbered stars: 1 amine (or outer) side, 2 acyl side, 3 side chain; on linkers, the order of the positions; unused ones are H or OH. Square brackets hold non-standard residues; d marks the D form. Side chains are listed from the residue outwards. Peptide text beside a SMILES is read from it. * marks the point of attachment. Phe(4-CH2NH2) = NCc1ccc(C[C@H](N)C(=O)O)cc1; C18 diacid = O=C(O)CCCCCCCCCCCCCCCCC(=O)*; αMeW = C[C@](N)(Cc1c[nH]c2ccccc12)C(=O)O; γGlu = O=C(O)[C@H](CCC(=O)[*:2])N[*:1]; Met(O2) = CS(=O)(=O)CC[C@H](N)C(=O)O; αMeD = C[C@](N)(CC(=O)O)C(=O)O; AEEA = NCCOCCOCC(=O)O; Aib = CC(C)(N)C(=O)O

T1 sequence (P47871 26-477): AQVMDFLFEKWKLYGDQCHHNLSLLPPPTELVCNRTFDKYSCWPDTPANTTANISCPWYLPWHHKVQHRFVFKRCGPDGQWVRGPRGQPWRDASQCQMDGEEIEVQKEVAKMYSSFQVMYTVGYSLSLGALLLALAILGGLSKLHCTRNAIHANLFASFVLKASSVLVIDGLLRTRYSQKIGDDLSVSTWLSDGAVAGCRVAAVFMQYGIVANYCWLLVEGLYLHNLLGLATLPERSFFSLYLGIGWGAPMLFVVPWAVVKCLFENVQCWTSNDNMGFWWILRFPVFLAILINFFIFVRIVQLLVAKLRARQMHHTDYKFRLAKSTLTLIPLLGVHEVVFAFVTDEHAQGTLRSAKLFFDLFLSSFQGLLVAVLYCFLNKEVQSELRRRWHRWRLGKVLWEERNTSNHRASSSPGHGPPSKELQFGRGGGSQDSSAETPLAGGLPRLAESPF

As to `CC(C)C[C@H](NC(=O)[C@H](Cc1ccc(O)cc1)NC(=O)[C@H](CCCCN)NC(=O)[C@H](CO)NC(=O)[C@H](Cc1ccc(O)cc1)NC(=O)[C@H](CC(=O)O)NC(=O)[C@H](CO)NC(=O)[C@@H](NC(=O)[C@H](Cc1ccccc1)NC(=O)[C@@H](NC(=O)CNC(=O)[C@H](CCC(N)=O)NC(=O)C(C)(C)NC(=O)[C@@H](N)Cc1c[nH]cn1)[C@@H](C)O)[C@@H](C)O)C(=O)N[C@@H](CC(=O)O)C(=O)N[C@@H](C)C(=O)N[C@@H](CCCCN)C(=O)N[C@@H](C)C(=O)N[C@@H](C)C(=O)N[C@@H](CCCCNC(=O)COCCOCCNC(=O)COCCOCCNC(=O)CC[C@H](NC(=O)CCCCCCCCCCCCCCCCC(=O)O)C(=O)O)C(=O)N[C@@H](CC(=O)O)C(=O)N[C@@H](Cc1ccccc1)C(=O)N[C@H](C(=O)N[C@@H](CCC(N)=O)C(=O)N[C@@H](Cc1c[nH]c2ccccc12)C(=O)N[C@@H](CC(C)C)C(=O)N[C@@H](CCS(C)(=O)=O)C(=O)N[C@@H](CC(=O)O)C(=O)N[C@H](C(N)=O)[C@@H](C)O)C(C)C` [TP598] (H-H[Aib]QGTFTSDYSKYLDAKAAK([AEEA-AEEA-γGlu-C18 diacid])DFVQWL[Met(O2)]DT-NH2; N-terminus assumed), the “hGCGR/hGLP1R (hTone)” value is given as 2.3.

With `CC(C)C[C@H](NC(=O)[C@H](Cc1ccc(O)cc1)NC(=O)[C@H](CCCCN)NC(=O)[C@H](CO)NC(=O)[C@H](Cc1ccc(O)cc1)NC(=O)[C@H](CC(=O)O)NC(=O)[C@H](CO)NC(=O)[C@@H](NC(=O)[C@H](Cc1ccccc1)NC(=O)[C@@H](NC(=O)CNC(=O)[C@H](CCC(N)=O)NC(=O)C(C)(C)NC(=O)[C@@H](N)Cc1c[nH]cn1)[C@@H](C)O)[C@@H](C)O)C(=O)N[C@@H](CC(=O)O)C(=O)N[C@@H](C)C(=O)N[C@@H](CCCNC(=N)N)C(=O)N[C@@H](C)C(=O)N[C@@H](C)C(=O)N[C@@H](CCC(N)=O)C(=O)N[C@@H](CC(=O)O)C(=O)N[C@@H](Cc1ccccc1)C(=O)N[C@H](C(=O)N[C@@H](CCC(N)=O)C(=O)N[C@@H](Cc1c[nH]c2ccccc12)C(=O)N[C@@H](CC(C)C)C(=O)N[C@@H](CCS(C)(=O)=O)C(=O)N[C@@H](Cc1ccc(CNC(=O)COCCOCCNC(=O)COCCOCCNC(=O)CC[C@H](NC(=O)CCCCCCCCCCCCCCCCC(=O)O)C(=O)O)cc1)C(=O)N[C@H](C(N)=O)[C@@H](C)O)C(C)C` [TP604] (H-H[Aib]QGTFTSDYSKYLDARAAQDFVQWL[Met(O2)][Phe(4-CH2NH2)]([AEEA-AEEA-γGlu-C18 diacid])T-NH2; N-terminus assumed), the “hGCGR/hGLP1R (hTone)” value turned out to be 2.3. Still for that read-out and setting: under “HsQGTFTSDNle(1,2,3-triazole-4-C4-Lys-C16)SKYLDARAAQDFVQWLLDT-NH2 (HXQGTFTSDXSKYLDARAAQDFVQWLLDT; D-Ser, Nle-triazole-C4-Lys-C16 lipid; C-terminal amide; peptide TP831; (2)..(2) Xaa is D-Serine; (10)..(10) Xaa is Nle(1,2,3-triazole-4-C4-Lys-C16); (29)..(29) Xaa is C-terminal amide)” stands 1.66. Consider `CCCCCCCCCCCCCCCc1cn(CCCC[C@H](NC(=O)[C@H](CC(=O)O)NC(=O)[C@H](CO)NC(=O)[C@@H](NC(=O)[C@H](Cc2ccccc2)NC(=O)[C@@H](NC(=O)CNC(=O)[C@H](CCC(N)=O)NC(=O)[C@@H](CO)NC(=O)[C@@H](N)Cc2c[nH]cn2)[C@@H](C)O)[C@@H](C)O)C(=O)N[C@@H](CO)C(=O)N[C@@H](CCCCN)C(=O)N[C@@H](Cc2ccc(O)cc2)C(=O)N[C@@H](CC(C)C)C(=O)N[C@@H](CC(=O)O)C(=O)N[C@@H](C)C(=O)N[C@@H](CCCNC(=N)N)C(=O)N[C@@H](C)C(=O)N[C@@H](C)C(=O)N[C@@H](CCC(N)=O)C(=O)N[C@@H](CC(=O)O)C(=O)N[C@@H](Cc2ccccc2)C(=O)N[C@H](C(=O)N[C@@H](CCC(N)=O)C(=O)N[C@@H](Cc2c[nH]c3ccccc23)C(=O)N[C@@H](CC(C)C)C(=O)N[C@@H](CC(C)C)C(=O)N[C@@H](CC(=O)O)C(=O)N[C@H](C(N)=O)[C@@H](C)O)C(C)C)nn1` [TP829], for which the “hGCGR/hGLP1R (hTone)” value was 1.56. As a reminder, the EC50 is the concentration giving half of the maximal effect. On to `CC(C)C[C@H](NC(=O)[C@H](Cc1ccc(O)cc1)NC(=O)[C@H](CCCCN)NC(=O)[C@H](CO)NC(=O)[C@H](Cc1ccc(O)cc1)NC(=O)[C@H](CC(=O)O)NC(=O)[C@H](CO)NC(=O)[C@@H](NC(=O)[C@H](Cc1ccccc1)NC(=O)[C@@H](NC(=O)CNC(=O)[C@H](CCC(N)=O)NC(=O)C(C)(C)NC(=O)[C@@H](N)Cc1c[nH]cn1)[C@@H](C)O)[C@@H](C)O)C(=O)N[C@@H](CC(=O)O)C(=O)N[C@@H](C)C(=O)N[C@@H](CCCNC(=N)N)C(=O)N[C@@H](C)C(=O)N[C@@H](C)C(=O)N[C@@H](CCCCNC(=O)COCCOCCNC(=O)CC[C@H](NC(=O)CCCCCCCCCCCCCCCCC(=O)O)C(=O)O)C(=O)N[C@@H](CC(=O)O)C(=O)N[C@@H](Cc1ccccc1)C(=O)N[C@H](C(=O)N[C@@H](CCC(N)=O)C(=O)N[C@@H](Cc1c[nH]c2ccccc12)C(=O)N[C@@H](CC(C)C)C(=O)N[C@@H](CCS(C)(=O)=O)C(=O)N[C@@](C)(CC(=O)O)C(=O)N[C@H](C(N)=O)[C@@H](C)O)C(C)C` [TP628] (H-H[Aib]QGTFTSDYSKYLDARAAK([AEEA-γGlu-C18 diacid])DFVQWL[Met(O2)][αMeD]T-NH2; N-terminus assumed), for which the “hGCGR/hGLP1R (hTone)” value was determined as 0.6. Further, for the setting “cells expressing human GCGR, cAMP production, buffer with or without 20% human serum (not stated which), read-out: GCGR EC50 human”, the concentration giving a half-maximal response (EC50) was determined as 860 pM. For “HsQGTFTSDNle(1,2,3-triazole-4-γE-C16)SKYLDARAAQDFVQWLLDT-NH2 (HXQGTFTSDXSKYLDARAAQDFVQWLLDT; D-Ser, Nle-triazole-γE-C16 lipid; C-terminal amide; peptide TP830; (2)..(2) Xaa is D-Serine; (10)..(10) Xaa is Nle(1,2,3-triazole-4-gammaGlu-C16); (29)..(29) Xaa is C-terminal amide)”, the “hGCGR/hGLP1R (hTone)” value was found to be 0.64.

Turning to `CC(C)C[C@H](NC(=O)[C@H](Cc1ccc(O)cc1)NC(=O)[C@H](CCCCN)NC(=O)[C@H](CO)NC(=O)[C@H](Cc1ccc(O)cc1)NC(=O)[C@H](CC(=O)O)NC(=O)[C@H](CO)NC(=O)[C@@H](NC(=O)[C@H](Cc1ccccc1)NC(=O)[C@@H](NC(=O)CNC(=O)[C@H](CCC(N)=O)NC(=O)C(C)(C)NC(=O)[C@@H](N)Cc1c[nH]cn1)[C@@H](C)O)[C@@H](C)O)C(=O)N[C@@H](CC(=O)O)C(=O)N[C@@H](C)C(=O)N[C@@H](CCCNC(=N)N)C(=O)N[C@@H](C)C(=O)N[C@@H](C)C(=O)N[C@@H](CCCCNC(=O)COCCOCCNC(=O)COCCOCCNC(=O)CC[C@H](NC(=O)CCCCCCCCCCCCCCCCC(=O)O)C(=O)O)C(=O)N[C@@H](CC(=O)O)C(=O)N[C@@H](Cc1ccccc1)C(=O)N[C@H](C(=O)N[C@@H](CCC(N)=O)C(=O)N[C@@](C)(Cc1c[nH]c2ccccc12)C(=O)N[C@@H](CC(C)C)C(=O)N[C@@H](CCS(C)(=O)=O)C(=O)N[C@@](C)(CC(=O)O)C(=O)N[C@H](C(N)=O)[C@@H](C)O)C(C)C` [TP632] (H-H[Aib]QGTFTSDYSKYLDARAAK([AEEA-AEEA-γGlu-C18 diacid])DFVQ[αMeW]L[Met(O2)][αMeD]T-NH2), the “hGCGR/hGLP1R (hTone)” value was 0.9. Same read-out and setting: under `CC(C)C[C@H](NC(=O)[C@H](CC(C)C)NC(=O)[C@H](CCCCN)NC(=O)[C@H](CO)NC(=O)[C@H](Cc1ccc(O)cc1)NC(=O)[C@H](CC(=O)O)NC(=O)[C@H](CO)NC(=O)[C@@H](NC(=O)[C@H](Cc1ccccc1)NC(=O)[C@@H](NC(=O)CNC(=O)[C@H](CCC(N)=O)NC(=O)C(C)(C)NC(=O)[C@@H](N)Cc1c[nH]cn1)[C@@H](C)O)[C@@H](C)O)C(=O)N[C@@H](CC(=O)O)C(=O)N[C@@H](C)C(=O)N[C@@H](CCCNC(=N)N)C(=O)N[C@@H](C)C(=O)N[C@@H](C)C(=O)N[C@@H](CCCCNC(=O)COCCOCCNC(=O)COCCOCCNC(=O)CC[C@H](NC(=O)CCCCCCCCCCCCCCCCC(=O)O)C(=O)O)C(=O)N[C@@H](CC(=O)O)C(=O)N[C@@H](Cc1ccccc1)C(=O)N[C@H](C(=O)N[C@@H](CCC(N)=O)C(=O)N[C@@H](Cc1c[nH]c2ccccc12)C(=O)N[C@@H](CC(C)C)C(=O)N[C@@H](CCS(C)(=O)=O)C(=O)N[C@@H](CC(=O)O)C(=O)N[C@H](C(N)=O)[C@@H](C)O)C(C)C` [TP597] (H-H[Aib]QGTFTSDYSKLLDARAAK([AEEA-AEEA-γGlu-C18 diacid])DFVQWL[Met(O2)]DT-NH2; N-terminus assumed) stands 1.2; under `CC(C)C[C@H](NC(=O)[C@H](Cc1c[nH]c2ccccc12)NC(=O)[C@H](CCCCNC(=O)COCCOCCNC(=O)COCCOCCNC(=O)CC[C@H](NC(=O)CCCCCCCCCCCCCCCCC(=O)O)C(=O)O)NC(=O)[C@@H](NC(=O)[C@H](Cc1ccccc1)NC(=O)[C@H](CC(=O)O)NC(=O)[C@H](CCC(N)=O)NC(=O)[C@H](C)NC(=O)[C@H](C)NC(=O)[C@H](CCCNC(=N)N)NC(=O)C(C)(C)NC(=O)[C@H](CC(=O)O)NC(=O)[C@H](CC(C)C)NC(=O)[C@H](Cc1ccc(O)cc1)NC(=O)[C@H](CCCCN)NC(=O)[C@H](CO)NC(=O)[C@H](Cc1ccc(O)cc1)NC(=O)[C@H](CC(=O)O)NC(=O)[C@H](CO)NC(=O)[C@@H](NC(=O)[C@H](Cc1ccccc1)NC(=O)[C@@H](NC(=O)CNC(=O)[C@H](CCC(N)=O)NC(=O)C(C)(C)NC(=O)[C@@H](N)Cc1c[nH]cn1)[C@@H](C)O)[C@@H](C)O)C(C)C)C(=O)N[C@@H](CCS(C)(=O)=O)C(=O)N[C@@H](CC(=O)O)C(=O)N[C@H](C(N)=O)[C@@H](C)O` [TP575] (H-H[Aib]QGTFTSDYSKYLD[Aib]RAAQDFVK([AEEA-AEEA-γGlu-C18 diacid])WL[Met(O2)]DT-NH2; N-terminus assumed), 0.7.
